We go through 11 compounds from ChEMBL document CHEMBL1201862, “PubChem BioAssay data set” (2004).

Among the test systems are HCT-15; MCF7; IGROV-1; CCRF-CEM; NCI-H522; KM12; HL-60; M14; RXF 393; SK-MEL-5; MDA-MB-231; MOLT-4; NCI-H226; MDA-N; SNB-75; OVCAR-3; NCI-H460; SNB-19; SK-MEL-2; UACC-257.
Holding throughout (test): NCI-60 cell line screen, 48 h

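Test compounds were applied to cells in 96-well plates for 48 hours at 5 doses. At the GI50, growth is halved.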 Calls of active or inactive are those of the source. Cut-off read from the data, not from the text of the source: active = GI50 up to about 1.1 µM and inactive = higher.

On to `COC(=O)/C=C1/OC(c2ccc(C)cc2C)=CC1=O`, for which the GI50 in the experiment with HCT-15 was 13.9 µM; in the experiment with MCF7, 8.26 µM (inactive); with IGROV-1, 4.47 µM (inactive); in the experiment with CCRF-CEM, 3.42 µM (inactive); in the experiment on NCI-H522 it was 14.1 µM (inactive); in the experiment with KM12, 17.6 µM (inactive). For the same compound, the GI50 in the experiment with HL-60 is 2.74 µM (inactive); in the experiment with M14, 15.6 µM (inactive); with RXF 393 it was 12.1 µM (inactive); in the experiment on SK-MEL-5, 16.4 µM (inactive); in the experiment with MDA-MB-231, 14.3 µM (inactive); with MOLT-4, 3.55 µM (inactive). Besides, the GI50 in the experiment with NCI-H226 was 19.5 µM (inactive); in the experiment on MDA-N, 15.2 µM (inactive); in the experiment with SNB-75 it was 12.9 µM (inactive); in the experiment with OVCAR-3 it was 26.9 µM (inactive); with NCI-H460, 19 µM (inactive); in the experiment on SNB-19 it was > 10 µM (inactive).
As for `COC1(OC)N=C(N)C2(C#N)C(C)=C3NCN(C)N=C3C12C#N` (stereo not given), the GI50 in the experiment with SK-MEL-2 was > 100 µM (inactive); in the experiment on HCT-15, over 100 µM; in the experiment with MCF7 it was > 100 µM (inactive); with IGROV-1 it was > 100 µM (inactive); in the experiment with CCRF-CEM, > 10 µM (inactive); with NCI-H522, > 100 µM (inactive). For the same compound, the GI50 is > 100 µM (inactive) in the experiment with KM12; > 10 µM (inactive) in the experiment on HL-60; > 100 µM (inactive) in the experiment with M14; > 100 µM (inactive) in the experiment on RXF 393; > 100 µM (inactive) in the experiment with UACC-257; > 100 µM (inactive) with SK-MEL-5. The GI50 with MDA-MB-231, in the experiment on NCI-H226, in the experiment with MDA-N, with SNB-75, with OVCAR-3 and with SNB-19 was > 100 µM (inactive) each time.
`CCOC(=O)c1cc2nc3ccccc3c(=O)n2c2ccccc12`: the GI50 was > 10 µM (inactive) in the experiment with SK-MEL-2; over 10 µM in the experiment with HCT-15; > 10 µM (inactive) with MCF7; > 10 µM (inactive) with IGROV-1; > 10 µM (inactive) in the experiment on CCRF-CEM; > 10 µM (inactive) in the experiment on NCI-H522. Further, the GI50 in the experiment with KM12, in the experiment with HL-60, in the experiment with M14, with RXF 393, in the experiment with UACC-257 and in the experiment on SK-MEL-5 was > 10 µM (inactive) throughout. Further, the GI50 with MDA-MB-231 was > 10 µM (inactive); in the experiment on NCI-H226, > 10 µM (inactive); in the experiment with MDA-N, > 10 µM (inactive); in the experiment on SNB-75, 6.32 µM (inactive); in the experiment on OVCAR-3, > 10 µM (inactive); in the experiment with NCI-H460, > 10 µM (inactive). In the experiment with SNB-19, the GI50 is > 10 µM (inactive).
`COC(=O)/C=C1/SC(/C(=C(/[O-])OC)[n+]2ccc3ccccc3c2)=NC1=O`: the GI50 in the experiment on SK-MEL-2, in the experiment on MCF7, in the experiment on IGROV-1, in the experiment with CCRF-CEM, in the experiment with NCI-H522 and in the experiment with KM12 was > 100 µM (inactive) each time. Also, the GI50 in the experiment with HL-60 is > 100 µM (inactive); with M14 it was > 100 µM (inactive); in the experiment with RXF 393, > 100 µM (inactive); in the experiment on UACC-257, > 100 µM (inactive); in the experiment on SK-MEL-5, > 100 µM (inactive); in the experiment on MDA-MB-231, 21.9 µM (inactive). Moreover, the GI50 with MOLT-4 was > 100 µM (inactive); in the experiment on NCI-H226, > 100 µM (inactive); in the experiment on MDA-N it was > 100 µM (inactive); in the experiment on SNB-75, 90.2 µM (inactive); with SNB-19 it was > 100 µM (inactive).
For `COc1ccc(CNc2ccn(C3OC(CO)C(O)C3O)c(=O)n2)cc1` (stereo not given), the GI50 with SK-MEL-2 is > 100 µM (inactive); in the experiment on HCT-15, over 100 µM; with MCF7, 72.9 µM (inactive); in the experiment on IGROV-1 it was > 100 µM (inactive); in the experiment with CCRF-CEM it was 31.3 µM (inactive); in the experiment on NCI-H522, 70.1 µM (inactive). Further, the GI50 in the experiment on KM12 was 45.9 µM (inactive); with HL-60, 27.2 µM (inactive); in the experiment with M14, 50.5 µM (inactive); in the experiment with RXF 393, > 100 µM (inactive); in the experiment on UACC-257 it was 49.8 µM (inactive); in the experiment with SK-MEL-5, 62.5 µM (inactive). The GI50 in the experiment on MDA-MB-231 was > 100 µM (inactive); in the experiment with MOLT-4, 45.1 µM (inactive); in the experiment with NCI-H226 it was > 100 µM (inactive); in the experiment with MDA-N, 49.9 µM (inactive); with OVCAR-3 it was > 100 µM (inactive); in the experiment with NCI-H460 it was 78.7 µM (inactive). In addition, in the experiment with SNB-19, the GI50 is > 100 µM (inactive).
Take `CN1CCCCC1CCN1CCCCC1` (stereo not given): the GI50 with SK-MEL-2 is > 100 µM (inactive); in the experiment with HCT-15 it was over 100 µM; in the experiment with MCF7, > 100 µM (inactive); in the experiment on IGROV-1, > 100 µM (inactive); with NCI-H522, > 100 µM (inactive); in the experiment with KM12, > 100 µM (inactive). Also, the GI50 is 83 µM (inactive) with HL-60; > 100 µM (inactive) with M14; > 100 µM (inactive) with RXF 393; > 100 µM (inactive) with UACC-257; > 100 µM (inactive) with SK-MEL-5; > 100 µM (inactive) in the experiment with MDA-MB-231. Also, the GI50 in the experiment on MOLT-4, in the experiment with NCI-H226, in the experiment with MDA-N, in the experiment on SNB-75, with OVCAR-3 and in the experiment with NCI-H460 was > 100 µM (inactive) in each case. Further, in the experiment on SNB-19, the GI50 is > 100 µM (inactive).
Regarding `Nc1ccc(Cc2ccc(N)c(C(=O)O)c2)cc1C(=O)O`, the GI50 with SK-MEL-2 was > 100 µM (inactive); in the experiment with HCT-15, over 100 µM; with MCF7 it was > 100 µM (inactive); in the experiment on IGROV-1, > 100 µM (inactive); in the experiment with CCRF-CEM, > 100 µM (inactive); with NCI-H522, > 100 µM (inactive). Further, the GI50 in the experiment with KM12, in the experiment with HL-60, with M14, in the experiment with RXF 393, with UACC-257 and in the experiment with SK-MEL-5 was > 100 µM (inactive) throughout. Besides, the GI50 with MDA-MB-231, with NCI-H226, in the experiment on MDA-N, in the experiment with SNB-75, with OVCAR-3 and in the experiment with NCI-H460 was > 100 µM (inactive) throughout. Further, in the experiment with SNB-19, the GI50 was > 100 µM (inactive).
For `COc1ccccc1N1CCN(CCCCNC(=O)c2ccc([N+](=O)[O-])o2)CC1`, the GI50 with SK-MEL-2 was 4.97 µM (inactive); in the experiment on HCT-15, 3.48 µM; in the experiment with MCF7, 4.75 µM (inactive); in the experiment with IGROV-1, 13.7 µM (inactive); with CCRF-CEM it was 21.1 µM (inactive); with NCI-H522, 2.69 µM (inactive). Besides, the GI50 in the experiment with KM12 is 5.53 µM (inactive); in the experiment on HL-60, 5.86 µM (inactive); in the experiment with M14, 4.05 µM (inactive); in the experiment with RXF 393 it was 8.57 µM (inactive); in the experiment with UACC-257, 4.1 µM (inactive); in the experiment on SK-MEL-5 it was 6.75 µM (inactive). The GI50 was 23.6 µM (inactive) in the experiment with MDA-MB-231; 23.1 µM (inactive) in the experiment with MOLT-4; 11.7 µM (inactive) in the experiment with NCI-H226; 3.18 µM (inactive) with MDA-N; 4.52 µM (inactive) in the experiment on OVCAR-3; 3.43 µM (inactive) in the experiment on NCI-H460. The GI50 in the experiment with SNB-19 is 11.8 µM (inactive).
As to `COc1ccc2nc3ccc(OC)cc3c(S(=O)(=O)Cc3ccc([N+](=O)[O-])cc3)c2c1`, the GI50 with SK-MEL-2 was > 100 µM (inactive); in the experiment on HCT-15 it was over 100 µM; with MCF7, > 100 µM (inactive); in the experiment with IGROV-1, > 100 µM (inactive); in the experiment on CCRF-CEM it was > 100 µM (inactive); in the experiment on NCI-H522, > 100 µM (inactive). Also, the GI50 in the experiment with KM12 was > 100 µM (inactive); in the experiment on HL-60, > 100 µM (inactive); with M14 it was > 100 µM (inactive); with RXF 393 it was > 100 µM (inactive); with UACC-257, > 100 µM (inactive); in the experiment with MDA-MB-231 it was 61.7 µM (inactive). The GI50 with MOLT-4 is > 100 µM (inactive); in the experiment with NCI-H226 it was > 100 µM (inactive); with MDA-N it was > 100 µM (inactive); in the experiment with SNB-75, 38.7 µM (inactive); in the experiment on OVCAR-3, > 100 µM (inactive); in the experiment on NCI-H460, > 100 µM (inactive). Further, the GI50 with SNB-19 was > 100 µM (inactive).
Turning to `Cn1c(-c2ccccc2)cc2c3ccsc3c3ccsc3c21`, the GI50 is > 100 µM (inactive) with SK-MEL-2; 29.2 µM in the experiment with HCT-15; 4.75 µM (inactive) in the experiment with MCF7; > 100 µM (inactive) with IGROV-1; > 100 µM (inactive) in the experiment on NCI-H522; 16.1 µM (inactive) in the experiment with KM12. Moreover, the GI50 in the experiment with HL-60, in the experiment with M14, in the experiment on RXF 393, in the experiment with UACC-257, in the experiment on SK-MEL-5 and in the experiment with MDA-MB-231 was > 100 µM (inactive) in each case. The GI50 in the experiment with MOLT-4 is 92.7 µM (inactive); in the experiment with NCI-H226, > 100 µM (inactive); with MDA-N, > 100 µM (inactive); in the experiment on SNB-75, > 100 µM (inactive); in the experiment with OVCAR-3, > 100 µM (inactive); with NCI-H460, 53.1 µM (inactive). For the same compound, the GI50 with SNB-19 was > 100 µM (inactive).
As for `CC(C)(C)OC(=O)NC(CCCCNC(=O)OCc1ccccc1)C(=O)NCCNc1ccc(NCCNC(=O)C(CCCCNC(=O)OCc2ccccc2)NC(=O)OC(C)(C)C)c2c1C(=O)c1ccccc1C2=O` (stereo not given), the GI50 in the experiment on SK-MEL-2 was 6.44 µM (inactive); in the experiment on HCT-15, over 100 µM; in the experiment on MCF7, 6.97 µM (inactive); in the experiment on IGROV-1 it was 29.3 µM (inactive); in the experiment on NCI-H522, 10.3 µM (inactive); in the experiment on KM12, 25.6 µM (inactive). Further, the GI50 is 1.02 µM (active) in the experiment on HL-60; > 100 µM (inactive) in the experiment with M14; 25.7 µM (inactive) in the experiment on RXF 393; > 100 µM (inactive) with UACC-257; > 100 µM (inactive) in the experiment with SK-MEL-5; 5.85 µM (inactive) in the experiment with MDA-MB-231. Further, the GI50 is > 100 µM (inactive) with MOLT-4; > 86.5 µM (inactive) in the experiment with NCI-H226; 26.4 µM (inactive) in the experiment with MDA-N; 15.3 µM (inactive) in the experiment on SNB-75; > 79.4 µM (inactive) in the experiment on OVCAR-3; > 100 µM (inactive) in the experiment with NCI-H460. In addition, in the experiment on SNB-19, the GI50 is 10.5 µM (inactive).
